Assay results reported in PMC12211128, “Safety, tolerability, pharmacokinetic and pharmacodynamic effects of the muscarinic M1 positive allosteric modulator VU0467319 for Alzheimer’s disease: a single ascending-dose study in healthy participants” (Alzheimer's Research & Therapy, 2025).

Test system: healthy participants
Experiment: Conner's Continuous Performance Task (CPT)
Assay type: in vivo, human
Details: for CPT Commission Errors / CPT Hit Response Time / CPT Omission Errors / CPT Perseverations: mean (SD)
Description: (§1) The Conner’s Continuous Performance Task (CPT; [32]) tested sustained attention to a target. Participants saw a string of letters appearing one at a time on a computer screen. Participants were asked to press the spacebar whenever the target stimulus (any letter except for the X) appeared. Participants were asked to withhold responding when a X was presented, which is the non-target stimulus. A set of 15 outcome measures derived from the task report were recorded as key variables. These measures include Hit RT, Hit Standard Error, Commission, Omission and Perseveration errors, Sensitivity, Response style, and the Hit standard error across different interstimulus intervals.
Cognitive data: In this exploratory analysis, each outcome variable of the cognitive data was examined in a mixed model analysis of variance with one between-subjects factor of VU319 dose (0, 60, 120, 240, 400, 600 mg) and a within-subjects factor of testing session (pre-dose vs. post-dost administration). Post-hoc analysis compared each of the VU319 dose cohorts against the placebo group. Because the participants were healthy adults with normal cognitive function, we considered effects between no reductions in function to small improvement (d = 0.0–0.20) to be a positive result. For the food effect study, only the participants who received VU319 were examined due to the disproportionately small placebo group (n = 2). A within-subjects ANOVA including food condition (fasted/fed) and testing session (pre-dose vs. post-dose administration) was performed on each outcome variable.
as §1, with “(Conners et al., 2000))” for “[32])”

[1] = Food effect study 120 mg, Fasting, Post-Drug, n = 9
[2] = Food effect study 120 mg, Fasting, Pre-Drug, n = 9
[3] = Food effect study 120 mg, Fed, Post-Drug, n = 9
[4] = Food effect study 120 mg, Fed, Pre-Drug, n = 9

Cn1cc2c(-c3cc(F)c(CN4Cc5ncccc5C4=O)c(F)c3)cccc2n1 [VU319]
CPT Hit RT, 600 mg vs placebo, effect size d (600 mg, pre-dose to post-dose): 1.48
CPT Hit RT, pre- to post-dose change, mean difference vs placebo (600 mg, p = 0.012): -28.12
CPT Commission Errors [1]: 12.6 (6.62)
CPT Hit Response Time [1]: 387.85 (64.33) ms
CPT Omission Errors [1]: 4.33 (7.16)
CPT Perseverations [1]: 2.56 (6.93)
CPT Commission Errors [2]: 11.6 (5.68)
CPT Hit Response Time [2]: 395.78 (51.66) ms
CPT Omission Errors [2]: 4.56 (10.4)
CPT Perseverations [2]: 3.89 (11.7)
CPT Commission Errors [3]: 12.3 (6.2)
CPT Hit Response Time [3]: 381.1 (71.8) ms
CPT Omission Errors [3]: 2 (4.24)
CPT Perseverations [3]: 1.78 (2.44)
CPT Commission Errors [4]: 11.1 (5.58)
CPT Hit Response Time [4]: 381.6 (59.56) ms
CPT Omission Errors [4]: 1.22 (1.48)
CPT Perseverations [4]: 0.44 (1.01)
CPT Commission Errors (SAD study, 60 mg, Post-Drug): 13.33 (4.37)
CPT Hit Response Time (SAD study, 60 mg, Post-Drug): 407.08 (66.44) ms
CPT Omission Errors (SAD study, 60 mg, Post-Drug): 3.33 (4.55)
CPT Perseverations (SAD study, 60 mg, Post-Drug): 0 (0)
CPT Commission Errors (SAD study, 60 mg, Pre-Drug): 12.83 (4.07)
CPT Hit Response Time (SAD study, 60 mg, Pre-Drug): 393.27 (46.65) ms
CPT Omission Errors (SAD study, 60 mg, Pre-Drug): 1 (1.27)
CPT Perseverations (SAD study, 60 mg, Pre-Drug): 0.33 (0.52)
CPT Commission Errors (SAD study, 120 mg, Post-Drug): 15.33 (5.92)
CPT Hit Response Time (SAD study, 120 mg, Post-Drug): 356.2 (29.58) ms
CPT Omission Errors (SAD study, 120 mg, Post-Drug): 4.67 (5.28)
CPT Perseverations (SAD study, 120 mg, Post-Drug): 1.5 (1.98)
CPT Commission Errors (SAD study, 120 mg, Pre-Drug): 15.5 (6.66)
CPT Hit Response Time (SAD study, 120 mg, Pre-Drug): 361.23 (27.25) ms
CPT Omission Errors (SAD study, 120 mg, Pre-Drug): 0.83 (0.75)
CPT Perseverations (SAD study, 120 mg, Pre-Drug): 0 (0)
CPT Commission Errors (SAD study, 240 mg, Post-Drug): 12 (1.55)
CPT Hit Response Time (SAD study, 240 mg, Post-Drug): 372.94 (64.52) ms
CPT Omission Errors (SAD study, 240 mg, Post-Drug): 2.33 (2.58)
CPT Perseverations (SAD study, 240 mg, Post-Drug): 0.83 (1.6)
CPT Commission Errors (SAD study, 240 mg, Pre-Drug): 11.33 (3.62)
CPT Hit Response Time (SAD study, 240 mg, Pre-Drug): 372.21 (43.06) ms
CPT Omission Errors (SAD study, 240 mg, Pre-Drug): 1 (1.27)
CPT Perseverations (SAD study, 240 mg, Pre-Drug): 0.5 (1.23)
CPT Commission Errors (SAD study, 400 mg, Post-Drug): 9.5 (3.08)
CPT Hit Response Time (SAD study, 400 mg, Post-Drug): 365.85 (33.44) ms
CPT Omission Errors (SAD study, 400 mg, Post-Drug): 1.67 (1.97)
CPT Perseverations (SAD study, 400 mg, Post-Drug): 0.33 (0.82)
CPT Commission Errors (SAD study, 400 mg, Pre-Drug): 10.33 (2.81)
CPT Hit Response Time (SAD study, 400 mg, Pre-Drug): 374.41 (25.8) ms
CPT Omission Errors (SAD study, 400 mg, Pre-Drug): 0.67 (1.2)
CPT Perseverations (SAD study, 400 mg, Pre-Drug): 0.17 (0.41)
CPT Commission Errors (SAD study, 600 mg, Post-Drug): 17 (8.49)
CPT Hit Response Time (SAD study, 600 mg, Post-Drug): 356.18 (45.08) ms
CPT Omission Errors (SAD study, 600 mg, Post-Drug): 1.5 (2.35)
CPT Perseverations (SAD study, 600 mg, Post-Drug): 1.5 (3.21)
CPT Commission Errors (SAD study, 600 mg, Pre-Drug): 13 (5.66)
CPT Hit Response Time (SAD study, 600 mg, Pre-Drug): 387.39 (51.74) ms
CPT Omission Errors (SAD study, 600 mg, Pre-Drug): 1.33 (3.27)
CPT Perseverations (SAD study, 600 mg, Pre-Drug): 0.33 (0.82)
CPT hit response time, dose by time interaction, effect size d (SAD study, p = 0.063, faster following higher doses): 1.19
CPT, effects of food or time (food effect study, 120 mg): no significant effects of food or time
